Earlier results in publication PMC12503259, “Establishment of an in vivo analytical method for detecting total anti-UFH activity and pharmacokinetic study in PS and R15 in rats” (PLOS One, 2025).

How the values were obtained:
[1] = UFH 300 U·kg^-1 in rats, preliminary experimental data; cited from earlier work
Source text: A dose of 300 U· kg^-1 dose of UFH is considered clinically effective. […] Accordingly, we performed pharmacokinetic studies of PS at 300 U kg^-1, and of R15 at 300, 900, and 2700 U· kg^-1 to determine whether R15 follows linear or nonlinear pharmacokinetics.

[2] = clinical practice; cited from earlier work
Source text: In clinical practice, PS is typically administered at 1.2 times the anti-heparin activity of circulating UFH to achieve complete neutralization [40, 41].

Unfractionated heparin [UFH]
duration of heparinization [1]: at least 4 hours | T1/2 [2]: 1 to 2 h
